Patent US20120214842A1, “METHODS FOR TREATING DISEASES OF THE RETINA” (priority 2011, published 2012)

System: ABCA4/RDH8 mouse model
Experiment: Light-induced retinal degeneration in ABCA4/RDH8 mouse model (ERG, retinal histology, SLO autofluorescence)
Assay type: in vivo
Details: 10 mg/kg twice daily IP, 10,000 lux light for 30 min on day 3
Experimental: The invention is illustrated by the following example. The compound of the invention was tested with the following experimental protocol: (1) Mice are dosed twice daily at 10 mg/kg or vehicle, IP. (2) On day 3, mice are exposed to 10,000 lux light for 30 min, 2 h after the first dosing and 6 h before the last dosing. (3) On day 11 ERG measurements are taken. (4) On day 12, mice are sacrificed for retinal histology. The ERG functional assay measures the functional integrity of retina. […] In the model, autofluorescence appears as the retina degenerates.

loss of ERG function (functional integrity of retina) (ERG on day 11, vs vehicle, FIG. 1): prevents loss of ERG function
photoreceptor cell loss (retinal histology grade; higher grade indicates more loss) (histology on day 12, FIG. 2): protects photoreceptor cell loss
Compound: Cn1cc(-c2ccncc2)c(-c2ccc(OCc3ccc4ccccc4n3)cc2)n1 [MP-10, 2-[4-(1-methyl-4-pyridin-4-yl-1H-pyrazol-3-yl)-phenoxymethyl]-quinoline]
autofluorescence in retina measured by SLO (FIG. 3): reduces the appearance of autofluorescence
